Key:
[1] = target: H1N1 (Influenza A virus (H1N1), UniProt Q289M4)
[2] = target: H1N1 OsR (Influenza A virus (H1N1), UniProt Q289M4)
Sequence of H1N1 OsR (Q289M4 whole entry, looked up): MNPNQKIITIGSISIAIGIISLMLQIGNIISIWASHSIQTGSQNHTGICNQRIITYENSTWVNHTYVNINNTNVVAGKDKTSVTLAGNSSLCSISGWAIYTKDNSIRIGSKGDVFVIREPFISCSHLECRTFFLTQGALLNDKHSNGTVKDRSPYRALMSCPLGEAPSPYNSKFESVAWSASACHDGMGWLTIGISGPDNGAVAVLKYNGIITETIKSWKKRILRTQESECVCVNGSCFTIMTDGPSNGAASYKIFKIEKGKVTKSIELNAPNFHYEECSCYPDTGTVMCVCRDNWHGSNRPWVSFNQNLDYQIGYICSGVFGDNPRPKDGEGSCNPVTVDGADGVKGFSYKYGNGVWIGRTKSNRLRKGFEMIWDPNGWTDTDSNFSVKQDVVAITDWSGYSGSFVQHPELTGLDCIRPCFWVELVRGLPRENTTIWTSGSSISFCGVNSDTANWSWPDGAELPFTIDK

Sequence of H1N1 (Q289M4 whole entry, looked up): as above

CC(=O)NC1C(N)C(F)C(F)(C(=O)O)OC1[C@H](O)[C@H](O)CO (stereo in doubt) [Compound 2eq3eq4NH2, 5-Acetamido-2,4,5-trideoxy-4-amino-2α, 3β-difluoro-α-D-erythro-L-gluco-nonulo-pyranosonate]
Half life for reactivation [1]: 4 h
Half life for reactivation [2]: 2 h
ki ([2]; pH 7.6): 4.7 ± 0.1 min⁻¹
